Experimental data reported in patent publication US20070136828A1, “Methods of using molecules related to organic cation transporter 3 (oct3) for treating depression, anxiety neuroses, drug dependencies, and other similar mental disorders” (Biostation Inc., priority 2004, published 2007).
Where two headings read alike, the source gives them in different places.

Key:
[1] = biological target: T1, kidney derived Caki-1 cells, which contain OCT3 (Homo sapiens, UniProt O75751); settings: cited from earlier work
T1 construct: kidney derived Caki-1 cells, which contain OCT3; endogenous in cells; host or cells: Caki-1
T1 sequence (O75751 1-556): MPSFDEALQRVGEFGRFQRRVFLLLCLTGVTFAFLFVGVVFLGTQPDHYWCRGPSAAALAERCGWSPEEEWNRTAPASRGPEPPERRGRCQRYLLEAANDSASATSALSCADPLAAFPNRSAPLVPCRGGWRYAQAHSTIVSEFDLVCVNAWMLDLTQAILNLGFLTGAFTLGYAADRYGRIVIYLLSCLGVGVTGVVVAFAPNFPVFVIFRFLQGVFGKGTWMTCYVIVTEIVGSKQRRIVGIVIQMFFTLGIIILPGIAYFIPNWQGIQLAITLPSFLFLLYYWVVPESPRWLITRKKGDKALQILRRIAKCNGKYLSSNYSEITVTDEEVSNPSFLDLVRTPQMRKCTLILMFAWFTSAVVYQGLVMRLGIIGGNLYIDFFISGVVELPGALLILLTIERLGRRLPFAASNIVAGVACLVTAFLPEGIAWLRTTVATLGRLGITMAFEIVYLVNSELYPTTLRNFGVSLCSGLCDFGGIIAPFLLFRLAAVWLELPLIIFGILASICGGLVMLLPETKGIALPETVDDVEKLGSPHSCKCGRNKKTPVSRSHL

OCT3/uptake2 = biological target: T2, OCT3/uptake2 (Homo sapiens, UniProt O75751); settings: cited from earlier work
T2 sequence (O75751 1-556): T1 sequence (O75751 1-556)

other OCT subtypes = settings: cited from earlier work
[2] = intravenous administration; cited from earlier work
Male ddY mice [3] = experiment: Forced swimming test (depression model); format: in vivo
Experimental: Male ddY mice were used for the experiments. Mice raised for three or more days after purchase were made to swim for 300 seconds in a beaker (15 cm in diameter, 20 cm in height). Immobility time was measured, and the mice were divided into groups such that the average immobility time was approximately the same for each group. The day after swimming an antisense (OCT3 antisense) constructed from an OCT3 gene sequence was continuously infused into the cerebral ventricle, using an osmotic pump according to the reported literature (J. Chem. Neuroanat. 2000. 20: 375-87). Further, a group infused with Ringer's solution, which is an antisense solvent (the solvent group) and a group infused with a cDNA sequence with the same bases as the antisense but in a random sequence without homology to known genes (the scrambled OCT3 antisense group) were also prepared. One week after infusion the mice were returned to the beakers and made to swim for 300 seconds, and immobility time was measured. Imipramine anti-depressant was intraperitoneally administered 30 minutes before the beginning of the test.

Male ddY mice [4] = settings: anti-depressant administration: chlordiazepoxide 100 mg/kg, imipramine 16 mg/kg; Behav Brain Res. 73, 43-46, 1996; cited from earlier work
[5] = test system: cultured porcine tubular cells; settings: cited from earlier work

C[C@]12C[C@H](O)[C@H]3[C@@H](CCC4=CC(=O)CC[C@@]43C)[C@@H]1CC[C@@H]2C(=O)CO [Corticosterone, corticosterone]
uptake of MPP+ [1]: suppresses

CCN1C(=Cc2cc(C)nc(-c3ccccc3)[n+]2C)C=Cc2ccccc21.[Cl-] [cyanine 863]
inhibition of OCT3/uptake2 (OCT3/uptake2): potent OCT3 inhibitors
inhibitory activity towards other OCT subtypes (other OCT subtypes): potent inhibitory activity

CCN1/C(=C/c2ccc3ccccc3[n+]2CC)C=Cc2ccccc21.[I-] [decynium 22]
inhibition of OCT3/uptake2 (OCT3/uptake2): potent OCT3 inhibitors
inhibitory activity towards other OCT subtypes (other OCT subtypes): potent inhibitory activity

CC(C)N1C=CC(=Cc2ccc3ccccc3[n+]2C(C)C)c2ccccc21 [disprocynium24, 1,1′-diisopropyl-2,4′-cyanine]
inhibition of OCT3/uptake2 (OCT3/uptake2): potent inhibitor
inhibition of OCT3/uptake2 (OCT3/uptake2; listed as disprocynium 24): potent OCT3 inhibitors
excretion of monoamine into urine [2]: strongly suppresses
inhibitory activity towards other OCT subtypes (other OCT subtypes): potent inhibitory activity

CN(C)CCCN1c2ccccc2CCc2ccccc21 [imipramine]
immobility time (average value) (Male ddY mice [3]; imipramine 4 mg/kg intraperitoneally 30 minutes before test, 300 seconds of swimming, FIG. 1B): 245 ± 15 s
condition of immobility (Male ddY mice [4]): shortened

COc1cc(C(O)CN)ccc1O (stereo not shown) [normetanephrine]
immobility time (average value) (Male ddY mice [3]; normetanephrine 2.5 μg/0.25 μl/hr continuous infusion to cerebral ventricle, one week, FIG. 2): 108 ± 29 s

CC(=O)[C@H]1CC[C@H]2[C@@H]3CCC4=CC(=O)CC[C@]4(C)[C@H]3CC[C@]12C [progesterone]
noradrenaline uptake [5]: significantly reduce
